# Experimental data published in publication PMC3604760 (mBio, 2013).
# How the values were obtained:
# [1] = biological target: MBP-cTlp1 (Azospirillum brasilense, UniProt Q64I05); experiment: equilibrium dialysis, HPLC quantification; format: binding
# [2] = biological target: MBP-cTlp1 (Azospirillum brasilense, UniProt Q64I05, R562A); experiment: equilibrium dialysis, HPLC quantification; format: binding
# Chain of MBP-cTlp1 (Azospirillum brasilense, UniProt Q64I05, R562A) (Q64I05 344-660 R562A): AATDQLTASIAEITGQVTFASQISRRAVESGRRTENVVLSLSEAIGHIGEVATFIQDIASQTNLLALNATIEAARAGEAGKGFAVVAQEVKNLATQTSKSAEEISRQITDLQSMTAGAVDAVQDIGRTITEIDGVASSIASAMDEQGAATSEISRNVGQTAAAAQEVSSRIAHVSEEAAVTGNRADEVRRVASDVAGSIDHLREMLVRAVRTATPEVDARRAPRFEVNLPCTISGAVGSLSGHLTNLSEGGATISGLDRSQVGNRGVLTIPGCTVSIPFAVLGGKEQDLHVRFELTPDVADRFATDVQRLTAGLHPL
# Chain of MBP-cTlp1 (Azospirillum brasilense, UniProt Q64I05) (Q64I05 344-660): as the sequence (Q64I05 344-660 R562A) above, with A219R counted along it
structure (smiles),measurement,setting,value
Nc1nc2c(ncn2[C@@H]2O[C@@H]3CO[P@](=O)(O)O[C@H]4[C@@H](O)[C@H](n5cnc6c(=O)[nH]c(N)nc65)O[C@@H]4CO[P@](=O)(O)O[C@H]3[C@H]2O)c(=O)[nH]1 [c-di-GMP],Kd,[1],6.9 ± 1.2 µM
same,Kd,[2],21.8 ± 7.1 µM
